# According to the supplement of paper PMC10307832:
# Assays:
# Test in all cases: relative viability (nuclei count vs DMSO), 5 days (fraction); higher = more cells survive
# Dinaciclib + Bortezomib = compound: CCc1cnn2c(NCc3ccc[n+]([O-])c3)cc(N3CCCC[C@H]3CCO)nc12 [Dinaciclib] + CC(C)C[C@H](NC(=O)[C@H](Cc1ccccc1)NC(=O)c1cnccn1)B(O)O [Bortezomib] (partner 0.002 µM)
# Method in brief: (§1)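 Relative viability divides the nuclei count in treated wells by that in vehicle wells. Lung cancer cell lines were seeded in 1536-well plates, dosed by pin tool the next day, and fixed and stained after 5 days in one step with final 0.05% Triton X-100, 1% formaldehyde and 1 ug/ml Hoechst. Dosing was a single drug or a fixed anchor-drug dose plus five library-drug doses (not always all listed) in √10 steps, and values are medians of duplicate plates imaged at 4×.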
# Dinaciclib + Luminespib = compound: CCc1cnn2c(NCc3ccc[n+]([O-])c3)cc(N3CCCC[C@H]3CCO)nc12 [Dinaciclib] + CCNC(=O)c1noc(-c2cc(C(C)C)c(O)cc2O)c1-c1ccc(CN2CCOCC2)cc1 [Luminespib] (partner 0.01 µM)
# Method in brief: as §1
# Dinaciclib + Foretinib = compound: CCc1cnn2c(NCc3ccc[n+]([O-])c3)cc(N3CCCC[C@H]3CCO)nc12 [Dinaciclib] + COc1cc2c(Oc3ccc(NC(=O)C4(C(=O)Nc5ccc(F)cc5)CC4)cc3F)ccnc2cc1OCCCN1CCOCC1 [Foretinib] (partner 0.25 µM)
# Method in brief: as §1
# Dinaciclib + Tozasertib = compound: CCc1cnn2c(NCc3ccc[n+]([O-])c3)cc(N3CCCC[C@H]3CCO)nc12 [Dinaciclib] + Cc1cc(Nc2cc(N3CCN(C)CC3)nc(Sc3ccc(NC(=O)C4CC4)cc3)n2)n[nH]1 [Tozasertib] (partner 0.1 µM)
# Method in brief: as §1
# Dinaciclib + Vorinostat = compound: CCc1cnn2c(NCc3ccc[n+]([O-])c3)cc(N3CCCC[C@H]3CCO)nc12 [Dinaciclib] + O=C(CCCCCCC(=O)Nc1ccccc1)NO [Vorinostat] (partner 1 µM)
# Method in brief: as §1
Cell Line,relative viability (Dinaciclib + Bortezomib; first compound 0.009487 µM),relative viability (Dinaciclib + Bortezomib; first compound 0.03 µM),relative viability (Dinaciclib + Bortezomib; first compound 0.09487 µM),relative viability (Dinaciclib + Bortezomib; first compound 0.3 µM),relative viability (Dinaciclib + Luminespib; first compound 0.009487 µM),relative viability (Dinaciclib + Luminespib; first compound 0.03 µM),relative viability (Dinaciclib + Luminespib; first compound 0.09487 µM),relative viability (Dinaciclib + Luminespib; first compound 0.3 µM),relative viability (Dinaciclib + Foretinib; first compound 0.009487 µM),relative viability (Dinaciclib + Foretinib; first compound 0.03 µM),relative viability (Dinaciclib + Foretinib; first compound 0.09487 µM),relative viability (Dinaciclib + Foretinib; first compound 0.3 µM),relative viability (Dinaciclib + Tozasertib; first compound 0.009487 µM),relative viability (Dinaciclib + Tozasertib; first compound 0.03 µM),relative viability (Dinaciclib + Tozasertib; first compound 0.09487 µM),relative viability (Dinaciclib + Tozasertib; first compound 0.3 µM),relative viability (Dinaciclib + Vorinostat; first compound 0.009487 µM),relative viability (Dinaciclib + Vorinostat; first compound 0.03 µM),relative viability (Dinaciclib + Vorinostat; first compound 0.09487 µM),relative viability (Dinaciclib + Vorinostat; first compound 0.3 µM)
LOU-NH91,0.4,0.345,0.287,0.281,0.324,0.294,0.224,0.16,0.971,0.406,0.214,0.216,0.656,0.305,0.178,0.174,0.825,0.286,0.241,0.275
NCI-H358,–,–,–,–,0.276,0.0982,0.0922,0.0842,0.493,0.0864,0.0847,0.0882,0.103,0.0813,0.0924,0.0857,0.339,0.0713,0.0813,0.0842
NCI-H522,–,–,–,–,1.2,0.653,0.465,0.276,–,–,–,–,0.488,0.418,0.372,0.278,1.13,0.99,0.449,0.319
NCI-H1395,–,–,–,–,0.631,0.31,0.244,0.238,1.18,0.335,0.269,0.252,0.782,0.301,0.24,0.239,0.537,0.269,0.273,0.224
NCI-H1703,0.366,0.122,0.132,0.114,–,–,–,–,0.39,0.319,0.144,0.12,–,–,–,–,–,–,–,–
NCI-H1792,0.925,0.741,0.238,0.0774,0.422,0.225,0.117,0.0889,–,–,–,–,–,–,–,–,–,–,–,–
NCI-H1793,–,–,–,–,0.218,0.107,0.144,0.12,0.344,0.171,0.141,0.143,0.284,0.13,0.131,0.103,0.599,0.25,0.107,0.158
NCI-H1944,–,–,–,–,0.799,0.142,0.137,0.137,0.892,0.191,0.152,0.134,0.233,0.134,0.132,0.127,0.522,0.172,0.11,0.133
NCI-H2170,–,–,–,–,0.608,0.142,0.142,0.146,0.901,0.281,0.189,0.194,0.721,0.171,0.144,0.143,0.736,0.132,0.116,0.116
SK-MES-1,–,–,–,–,0.428,0.131,0.167,0.152,0.962,0.189,0.135,0.137,0.777,0.157,0.156,0.139,1.23,0.156,0.161,0.148
SW 900,–,–,–,–,0.19,0.176,0.0768,0.0536,0.874,0.462,0.0641,0.0639,0.707,0.149,0.0868,0.0829,0.557,0.33,0.171,0.143
